Measured values published in PubChem BioAssay (NCI).
Values joined by “and” are separate entries in the source; they are usually repeats but may differ in a detail not shown here. Identical values can stand only once.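 Method: 48-hour compound exposure of cells in 96-well plates, five concentrations, linear interpolation of endpoints. The concentration for 50% growth inhibition is given as GI50. TGI: total growth inhibition.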

How the values were obtained:
Experiment in all cases: growth of human tumour cells (NCI), 48 h
CCRF-CEM leukemia = test system: CCRF-CEM leukemia
T-47D breast = test system: T-47D breast
OVCAR-5 ovarian = test system: OVCAR-5 ovarian
NCI-H226 lung = test system: NCI-H226 lung
ACHN renal = test system: ACHN renal
786-0 renal = test system: 786-0 renal
RPMI-8226 leukemia = test system: RPMI-8226 leukemia
UACC-62 melanoma = test system: UACC-62 melanoma
SW-620 colon = test system: SW-620 colon
OVCAR-3 ovarian = test system: OVCAR-3 ovarian

Compound | TGI (CCRF-CEM leukemia) | TGI (T-47D breast) | TGI (OVCAR-5 ovarian) | TGI (NCI-H226 lung) | TGI (ACHN renal) | TGI (786-0 renal) | TGI (RPMI-8226 leukemia) | TGI (UACC-62 melanoma) | TGI (SW-620 colon) | TGI (OVCAR-3 ovarian) | GI50 (CCRF-CEM leukemia) | GI50 (T-47D breast) | GI50 (OVCAR-5 ovarian) | GI50 (NCI-H226 lung) | GI50 (ACHN renal) | GI50 (786-0 renal) | GI50 (RPMI-8226 leukemia) | GI50 (UACC-62 melanoma) | GI50 (SW-620 colon) | GI50 (OVCAR-3 ovarian)
Nc1ccc2c(SCC(=O)Nc3ccccc3-c3ccccc3NC(=O)CSc3c4ccccc4nc4cc(N)ccc34)c3ccccc3nc2c1 | > 100 µM | > 63.3 µM | > 100 µM | 72.6 µM | > 86.6 µM | 56 µM | 38.6 µM | 56.5 µM | 67.4 µM | 70.4 µM |  |  |  |  |  |  |  |  |  | 
Oc1cccc(-c2nc(N3CCOCC3)c3oc4ncccc4c3n2)c1 | > 100 µM | 1.34 µM and 0.814 µM | > 26.6 µM | 78.6 µM and 68.3 µM |  | 1.67 µM and 1.28 µM | > 38.3 µM | 3.03 µM and 1.64 µM | > 100 µM | 0.811 µM and 3.24 µM | 0.517 µM and 0.461 µM | 0.212 µM and 0.192 µM | 2.38 µM and 2.84 µM | 4.12 µM and 7.21 µM | 0.0878 µM and 0.164 µM | 0.231 µM and 0.246 µM | 0.237 µM and 0.298 µM | 1.05 µM and 0.471 µM | 0.344 µM and 0.353 µM | 0.164 µM and 0.213 µM
Cc1cc([C@H](C)Nc2nccc(N3C(=O)OC[C@@H]3[C@H](C)F)n2)ncc1-c1ccnc(C(F)(F)F)c1 | > 100 µM | > 100 µM | > 100 µM | > 100 µM | > 100 µM | > 100 µM | > 100 µM | > 100 µM | > 100 µM | > 100 µM | 38.1 µM | 16.4 µM | > 100 µM | 30.5 µM | 24.7 µM | 42.4 µM | 16.7 µM | 21.7 µM | 46.6 µM | 36.3 µM
NCCNc1nc2ccccc2c2c(=O)c3cc(F)cc(Cl)c3sc12 | 2.82 µM | 3.48 µM | 3.1 µM | 31.2 µM | 2.99 µM | 3.14 µM | 3.82 µM | 3.06 µM | 3.08 µM | 3.18 µM | 1.31 µM | 1.55 µM | 1.65 µM | 9.54 µM | 1.63 µM | 1.64 µM | 1.8 µM | 1.66 µM | 1.54 µM | 1.72 µM
CC(C)(C)OC(=O)n1c(Cl)c(C(=O)N=C=S)c2ccccc21 | > 100 µM | > 100 µM | 94.3 µM | > 100 µM | > 100 µM | > 100 µM | 87.4 µM | 79 µM | > 100 µM | 72.9 µM | 35.5 µM | 47.8 µM | 23 µM | > 100 µM | 29.5 µM | 80 µM | 24.4 µM | 28.8 µM | 35.4 µM | 25.6 µM
Cc1ccc2c(C(C[N+](=O)[O-])c3ccco3)c(-c3ccccc3)[nH]c2c1 (centres undefined) | > 100 µM | > 100 µM | > 100 µM | > 100 µM | > 100 µM | > 100 µM | > 100 µM | > 100 µM | > 100 µM | > 100 µM | 34.1 µM | 23 µM | > 100 µM | > 100 µM | 41.4 µM | 41.3 µM | 53.7 µM | 26.8 µM | 11.4 µM | 22.8 µM
COc1ccccc1-c1nccc(COc2ccccc2C[C@@H](Oc2ncnc3sc(-c4ccc(F)cc4)c(-c4ccc(OCCN5CCN(C)CC5)c(Cl)c4C)c23)C(=O)O)n1 | > 35.7 µM | 23 µM | 6.25 µM | 10.9 µM | 15.3 µM | 4.2 µM | 0.285 µM | 1.41 µM | 6.88 µM | 6.99 µM | 0.804 µM | 3.49 µM | 2.12 µM | 3 µM | 5.07 µM | 2.01 µM | < 0.0104 µM | 0.0761 µM | 2.34 µM | 2.51 µM
COc1ccc(-c2nn3ncccc3c2-c2ccnc(Nc3cccc(C(F)(F)F)c3)n2)cc1 | > 25 µM | > 25 µM | > 25 µM | > 25 µM | > 25 µM | > 25 µM | > 25 µM | > 25 µM | > 25 µM | > 25 µM | 6.73 µM | 6.53 µM | 6.7 µM | 9.16 µM | 6.7 µM | 9.98 µM | 7.67 µM | 7.86 µM | 10.8 µM | 8.36 µM
O=C1Nc2ccc(Br)cc2C1=Nc1ccc(Cl)cc1 | 51.9 µM | > 100 µM | 39.8 µM | 58.8 µM | 39.1 µM | > 100 µM | 26.5 µM | 12.6 µM | 32.5 µM | 40 µM |  |  |  |  |  |  |  |  |  | 
Cc1cc(Nc2cc(N3CCN(C)CC3)nc(C#Cc3ccccc3)n2)n[nH]1 | > 69.5 µM | 23 µM | 18.8 µM | 14.3 µM | 11.7 µM | 14.2 µM | 59.3 µM | 15.1 µM | 14.4 µM | 17.8 µM | 6.89 µM | 4.86 µM | 3.58 µM | 2.17 µM | 1.06 µM | 3.13 µM | 12.6 µM | 2.45 µM | 2.72 µM | 4.46 µM
Fc1ccc(-c2cc(-c3cn[nH]c3-c3ccccn3)ccn2)cc1 | > 25 µM | > 25 µM | > 25 µM | > 25 µM | > 25 µM | > 25 µM | > 25 µM | > 25 µM | > 25 µM | > 25 µM | > 25 µM | > 25 µM | > 25 µM | > 25 µM | > 25 µM | > 22.6 µM | > 25 µM | > 25 µM | > 25 µM | > 25 µM
CC[C@H](C)[C@H](NC(=O)N[C@@H](C)c1ccccc1)C(=O)N(C)[C@H](C[C@@H](OC(C)=O)c1nc(C(=O)N[C@@H](Cc2ccccc2)C[C@H](C)C(=O)OC)cs1)C(C)C | > 100 µM | > 100 µM | > 100 µM | > 100 µM | > 100 µM | 82.2 µM | > 100 µM | > 100 µM | > 100 µM | 42.2 µM | 23.9 µM | 97.9 µM | 27.9 µM | 44.1 µM | 29.3 µM | 22.9 µM | 8.74 µM | 6.96 µM | 26.4 µM | 16.9 µM
NC1(C(=O)O)CSSC1 | > 100 µM | > 100 µM | 90.1 µM | 8.82 µM | 14.2 µM | > 100 µM | 50.8 µM | 20.1 µM | > 100 µM | 59.3 µM | 13.2 µM | 32.1 µM | 33.2 µM | 2.7 µM | 3.63 µM | 21.6 µM | 16.8 µM | 4.53 µM | 10.4 µM | 4.75 µM
